Legend:
[1] = system: EGFP-HTT 74 (mutant huntingtin); experiment: Mutant huntingtin (EGFP-HTT 74) clearance in transfected PC-12 cells, Western blot; type: cell-based; settings: EGFP-HTT 74 transfected PC-12 cells; hederagenin 40-80 μM, α-hederin 12-24 μM
Text: Protein extraction and Western blots: Cells were harvested by RIPA lysis buffer (Cell Signaling Technologies, Beverly, Mass., USA), and with the final protein concentrations measured by using Bradford reagent (Bio-Rad, Hercules, Calif., USA). After electrophoresis for protein band separation, proteins were transferred to the nitrocellulose membrane which was blocked with 5% non-fat dried milk immediately after protein transfer. Corresponding primary antibodies, followed by the addition of HRP-conjugated secondary antibodies, were incubated with the protein membrane with constant shaking. […] Band intensities were quantified by using the software, ImageJ (ImageJ 1.46r; National Institutes of Health, Bethesda, Md., USA).
Cells were then treated with either hederagenin or α-hederin for a further 24 h to determine the protein level of mutant huntingtin by Western blot analysis using an antibody against GFP (Ravikumar, B. et al., Nat Genet 2004, 36:585-595). On the other hand, ATG7 wild-type and ATG7-deficient MEF cells transfected with EGFP-HTT 74 were analyzed for the formation of huntingtin inclusion after 24 h of hederagenin or α-hederin treatment. Percentages of cells with cytoplasmic GFP-huntingtin (GFP-HTT74) inclusion formation were counted by the number of cells with GFP inclusions over the total number of GFP-positive cells in the same field under fluorescent microscopic analysis. […]

LC3-II = experiment: Western blot of LC3-II in ATG7+/+ and ATG7−/− MEFs; type: cell-based, mouse; settings: 24 h
Text: (§1) Protein extraction and Western blots: Cells were harvested by RIPA lysis buffer (Cell Signaling Technologies, Beverly, Mass., USA), and with the final protein concentrations measured by using Bradford reagent (Bio-Rad, Hercules, Calif., USA). After electrophoresis for protein band separation, proteins were transferred to the nitrocellulose membrane which was blocked with 5% non-fat dried milk immediately after protein transfer. Corresponding primary antibodies, followed by the addition of HRP-conjugated secondary antibodies, were incubated with the protein membrane with constant shaking. Visualization of protein band pattern was performed by using the ECL Western Blotting Detection Reagents (Invitrogen, Paisley, Scotland). Band intensities were quantified by using the software, ImageJ (ImageJ 1.46r; National Institutes of Health, Bethesda, Md., USA).

[2] = system: GFP-LC3 transfected PC-12 cells; experiment: GFP-LC3 autophagic puncta formation by fluorescence microscopy; type: cell-based; settings: for percentage of cells with GFP-LC3 puncta formation with addition of 3-MA: 60 μM hederagenin or 18 μM α-hederin with 5 mM 3-MA for 24 h; for formation of GFP-LC3 puncta with AMPK inhibitor compound C (CC): 60 μM hederagenin or 18 μM α-hederin with 5 mM CC for 24 h; for formation of fluorescent LC3 II puncta: PC-12 cells, hederagenin 20-80 μM, α-hederin 6-24 μM, 4-24 h
Experimental: Firstly, cells were plated on top of coverslips inside a 6-well culture dish. After compound treatment, cells were fixed with 4% paraformaldehyde for 20 min. FluorSave™ mounting media (Calbiochem, San Diego, Calif., USA) was used to mount the coverslips with cells before subjected to fluorescence microscopic analysis. The number of GFP-positive cells, and cells with GFP-LC3 puncta formation were examined and counted under the Nikon ECLIPSE 80i microscope by using 40× of magnification. In order to standardize the quantitation, the percentage of cells with autophagy induction was defined by counting the number of cells with increased punctate GFP-LC3 fluorescence in GFP-positive cells. A minimum of 1000 GFP-positive cells from 3 randomly selected fields were scored.

PC-12 cells = experiment: MTT cytotoxicity assay in PC-12 cells; type: cell-based; settings: for IC50: MTT assay for 48 h
Experimental: (§2) Cytotoxicity Assays: Cell viability was measured by using the MTT method (3-[4,5-dimethylthiazol-2-yl]-2,5-diphenyl tetrazolium bromide) as described previously (Wu, A. G. et al. Int J Mol Sci 2013, 14:22618-22641). Absorbance (OD) of cell samples was obtained by spectrophotometer at 570 nm. The percentage of cell viability was calculated by using the formula: cell viability (%)=cells numbertreated/cells numberDMSO control×100. All MTT data were calculated from three independent experiments.
as §2, with “experiments. Cell viability was also measured by flow cytometry using the Annexin V staining kit (BD Biosciences, San Jose, Calif., USA).” for “experiments.”
Cytotoxicity Assays and Flow Cytometry: Cell viability was measured by using the MTT method (3-[4,5-dimethylthiazol-2-yl]-2,5-diphenyl tetrazolium bromide) as described previously (Wu, A. G. et al. Int J Mol Sci 2013, 14:22618-22641). Absorbance (OD) of cell samples was obtained by spectrophotometer at 570 nm. The percentage of cell viability was calculated by using the formula: cell viability (%)=cells numbertreated/cells numberDMSO control×100. All MTT data were calculated from three independent experiments. Cell viability was also measured by flow cytometry using the Annexin V staining kit (BD Biosciences, San Jose, Calif., USA). In brief, PC-12 cells treated with hederagenin and α-hederin were analyzed by multiparametric flow cytometry using FITC-Annexin V and/or propidium iodide staining (BD Biosciences, San Jose, Calif., USA) by following manufacturer's instructions. Flow cytometry was then carried out using a FACSCalibur flow cytometer (BD Biosciences). […]

[3] = system: EGFP-HTT 74 (mutant huntingtin); experiment: Mutant huntingtin (EGFP-HTT 74) clearance and inclusion formation in ATG7+/+ and ATG7−/− MEFs; type: cell-based, mouse; settings: 24 h; for percentage of cells with fluorescence mutant huntingtin inclusion formation: ATG7−/− compared with ATG7+/+ MEFs after treatment; for inclusion clearance of overexpressed mutant huntingtin in ATG7+/+ MEFs: EGFP-HTT 74 transfected ATG7+/+ MEFs
Text: as §1
Cells were then treated with either hederagenin or α-hederin for a further 24 h to determine the protein level of mutant huntingtin by Western blot analysis using an antibody against GFP (Ravikumar, B. et al., Nat Genet 2004, 36:585-595). On the other hand, ATG7 wild-type and ATG7-deficient MEF cells transfected with EGFP-HTT 74 were analyzed for the formation of huntingtin inclusion after 24 h of hederagenin or α-hederin treatment. Percentages of cells with cytoplasmic GFP-huntingtin (GFP-HTT74) inclusion formation were counted by the number of cells with GFP inclusions over the total number of GFP-positive cells in the same field under fluorescent microscopic analysis. More than 200 GFP-positive cells were scored for each treatment.

[4] = system: PC-12 cells treated with 0.5 mM MPTP; experiment: Rescue from MPTP-induced cell death in PC-12 cells (MTT, Annexin V flow cytometry); type: cell-based; settings: cell density, MTT assay and flow cytometry
Experimental: Cytotoxicity Assays and Flow Cytometry: Cell viability was measured by using the MTT method (3-[4,5-dimethylthiazol-2-yl]-2,5-diphenyl tetrazolium bromide) as described previously (Wu, A. G. et al. Int J Mol Sci 2013, 14:22618-22641). Absorbance (OD) of cell samples was obtained by spectrophotometer at 570 nm. The percentage of cell viability was calculated by using the formula: cell viability (%)=cells numbertreated/cells numberDMSO control×100. All MTT data were calculated from three independent experiments. Cell viability was also measured by flow cytometry using the Annexin V staining kit (BD Biosciences, San Jose, Calif., USA). In brief, PC-12 cells treated with hederagenin and α-hederin were analyzed by multiparametric flow cytometry using FITC-Annexin V and/or propidium iodide staining (BD Biosciences, San Jose, Calif., USA) by following manufacturer's instructions. Flow cytometry was then carried out using a FACSCalibur flow cytometer (BD Biosciences). Data acquisition and analysis were performed with CellQuest (BD Biosciences).

myc-tagged-A53T-α-syn = type: cell-based; settings: PC-12 cells after 1 μg/ml Dox induction; hederagenin 40 or 60 μM, α-hederin 12 or 24 μM
Text: as §1

[5] = system: GFP-LC3 transfected Atg7+/+ and Atg7−/− MEFs; experiment: GFP-LC3 puncta formation in ATG7 wild-type and ATG7 deficient MEFs; type: cell-based, mouse; settings: α-hederin 12 or 24 μM, hederagenin 40, 60 or 80 μM, 24 h
Experimental: Immunocytochemistry and fluorescence microscopy: In brief, GFP-LC3 puncta formation was analyzed as described previously (Wu, A. G. et al. Int J Mol Sci 2013, 14:22618-22641). Firstly, cells were plated on top of coverslips inside a 6-well culture dish. After compounds treatments, cells were fixed with 4% paraformaldehyde for 20 min. FluorSave™ mounting media (Calbiochem, San Diego, Calif., USA) was used to mount the coverslips with cells before subjected to fluorescence microscopic analysis. The number of GFP-positive cells, and cells with GFP-LC3 puncta formation was examined and counted under the Nikon ECLIPSE 80i microscope by using 40× of magnification. In order to standardize the quantitation, the percentage of cells with autophagy induction was defined by counting the number of cells with punctate GFP-LC3 fluorescence in GFP-positive cells. A minimum of 1000 GFP-positive cells from 3 randomly selected fields were scored.

p-p70S6K = experiment: Western blot of p70S6K phosphorylation (downstream target of mTOR); type: cell-based; settings: hederagenin 0-80 μM, α-hederin 0-24 μM, 24 h
Text: as §1

Compound: C[C@@H]1O[C@@H](O[C@H]2[C@H](O[C@H]3CC[C@@]4(C)[C@@H](CC[C@]5(C)[C@@H]4CC=C4[C@@H]6CC(C)(C)CC[C@]6(C(=O)O)CC[C@]45C)[C@]3(C)CO)OC[C@H](O)[C@@H]2O)[C@H](O)[C@H](O)[C@H]1O [α-hederin]
- clearance of overexpressed huntingtin in PC-12 cells [1]: facilitate the clearance of overexpressed huntingtin
- protein expression of LC3-II in ATG7+/+ MEFs (LC3-II): significant increased protein expression of LC3-II
- percentage of cells with GFP-LC3 puncta formation with addition of 3-MA [2]: decreases the rate of autophagy
- formation of GFP-LC3 puncta with AMPK inhibitor compound C (CC) [2]: significant reduction
- formation of fluorescent LC3 II puncta [2]: increased formation of fluorescent LC3 II puncta
- IC50 (PC-12 cells): 26.5 µM
- cytotoxicity at most effective concentration (PC-12 cells; hederagenin 80 μM, α-hederin 24 μM): lack of obvious cytotoxicity
- percentage of cells with fluorescence mutant huntingtin inclusion formation [3]: higher percentage of cells with fluorescence mutant huntingtin inclusion formation was found in ATG−/− MEFs
- inclusion clearance of overexpressed mutant huntingtin in ATG7+/+ MEFs [3]: facilitate the inclusion clearance of overexpressed mutant huntingtin
- rescue from MPTP-induced cell death [4]: rescue cells from MPTP-induced cell death
- clearance of overexpressed mutant A53T α-syn (myc-tagged-A53T-α-syn): facilitate the clearance of the overexpressed mutant α-
- GFP-LC3-II puncta formation in ATG7-wild type MEFs [5]: significantly increase the GFP-LC3-II puncta formation
- phosphorylation of p70S6K (p-p70S6K): reduced phosphorylation of p70S6K

Compound: CC1(C)CC[C@]2(C(=O)O)CC[C@]3(C)C(=CC[C@@H]4[C@@]5(C)CC[C@H](O)[C@@](C)(CO)[C@@H]5CC[C@]43C)[C@@H]2C1 [hederagenin]
- clearance of overexpressed huntingtin in PC-12 cells [1]: facilitate the clearance of overexpressed huntingtin
- protein expression of LC3-II in ATG7+/+ MEFs (LC3-II): significant increased protein expression of LC3-II
- percentage of cells with GFP-LC3 puncta formation with addition of 3-MA [2]: decreases the rate of autophagy
- formation of GFP-LC3 puncta with AMPK inhibitor compound C (CC) [2]: significant reduction
- formation of fluorescent LC3 II puncta [2]: increased formation of fluorescent LC3 II puncta
- IC50 (PC-12 cells; Rattus norvegicus): > 100 µM
- percentage of cells with fluorescence mutant huntingtin inclusion formation [3]: higher percentage of cells with fluorescence mutant huntingtin inclusion formation was found in ATG−/− MEFs
- inclusion clearance of overexpressed mutant huntingtin in ATG7+/+ MEFs [3]: facilitate the inclusion clearance of overexpressed mutant huntingtin
- rescue from MPTP-induced cell death [4]: rescue cells from MPTP-induced cell death
- clearance of overexpressed mutant A53T α-syn (myc-tagged-A53T-α-syn): facilitate the clearance of the overexpressed mutant α-
- GFP-LC3-II puncta formation in ATG7-wild type MEFs [5]: significantly increase the GFP-LC3-II puncta formation
- phosphorylation of p70S6K (p-p70S6K): reduced phosphorylation of p70S6K

Reference: patent US10493118B2, “Triterpenoid obtainable from hedera helix for treatment of neurodegenerative diseases” (Macau University of Science and Technology, priority 2016, dated 2019)
